These results are taken from patent US10709706B2, “Nuclear transport modulators and uses thereof” (Karyopharm Therapeutics Inc., priority 2015, dated 2020).

Each structure is given as a SMILES string.

Holding throughout (format): cell-based
The subject of test [1] is 3T3 cells. Description: MTT cell proliferation assay, 3T3 cells. The following applies: Mus musculus, NIH3T3, 3T3 fibroblast cells, approximately 64-72 hours, 1 nM to 30 μM. Here is the method: (§1) The MTT cell proliferation assay was used to study the cytotoxic properties of the compounds. The assay was performed according to the method described by Roche Molecular Biochemicals, with minor modifications. The assay is based on the cleavage of the tetrazolium salt, MTT, in the presence of an electron-coupling reagent. The water-insoluble formazan salt produced must be solubilized in an additional step. Cells grown in a 96-well tissue culture plate were incubated with the MTT solution for approximately 4 hours. After this incubation period, a water-insoluble formazan dye formed. After solubilization, the formazan dye was quantitated using a scanning multi-well spectrophotometer (ELISA reader). […] The cells were seeded at 5,000-10,000 cells in each well of 96-well plate in 100 μL of fresh culture medium and were allowed to attach overnight. The stock solutions of the compounds were diluted in 100 μL cell culture medium to obtain eight concentrations of each test compound, ranging from 1 nM to 30 μM. […] All optical densities were measured at 490 nm using a Vmax Kinetic Microplate Reader (Molecular Devices). In most cases, the assay was performed in duplicate and the results were presented as a mean percent inhibition to the negative control±SE. The following formula was used to calculate the percent of inhibition: Inhibition (%)=(1−(ODo/OD))×100.
(§2) The compounds were tested against Z138, MM1S and 3T3 cells. The Z138 cell line is a mature B-cell acute lymphoblastic leukemia cell line derived from a patient with chronic lymphocytic leukemia. The MM1S cell line was established from the peripheral blood of a human multiple myeloma patient. 3T3 cells are standard fibroblast cells; they were originally isolated from Swiss mouse embryo tissue.
(Formazan colour is commonly taken as a measure of viable cells.)

Test [2] has as its system MM1S cells. Description: MTT cell proliferation assay, MM1S cells. The following applies: Homo sapiens, MM1.S, MM1S multiple myeloma cells, approximately 64-72 hours, 1 nM to 30 μM. Here is the method:
as §1, §2

Test [3] has as its system Z138 cells. Description: MTT cell proliferation assay, Z138 cells. The following applies: Homo sapiens, Z-138, approximately 64-72 hours, 1 nM to 30 μM. Here is the method: as §1, §2

With `Cc1ccc(/C(=C\c2ccnc(-c3cc(C(F)(F)F)cc(C(F)(F)F)c3)n2)C(N)=O)cc1F` [Compound 118, (E)-3-(2-(3,5-bis(trifluoromethyl)phenyl)pyrimidin-4-yl)-2-(3-fluoro-4-methylphenyl)acrylamide], the IC50 in test [1], in test [2] and in test [3] was > 30 µM in each case.

For `Cc1noc(C)c1/C(=C\c1ccnc(-c2cc(C(F)(F)F)cc(C(F)(F)F)c2)n1)C(N)=O` [Compound 124, (E)-3-(2-(3,5-bis(trifluoromethyl)phenyl)pyrimidin-4-yl)-2-(3,5-dimethylisoxazol-4-yl)acrylamide], the IC50 in test [1], in test [2] and in test [3] was > 30 µM throughout.

Consider `NC(=O)/C(=C/c1ccnc(-c2cc(C(F)(F)F)cc(C(F)(F)F)c2)n1)c1cccc(S(=O)(=O)N2CCCC2)c1` [Compound 162, (E)-3-(2-(3,5-bis(trifluoromethyl)phenyl)pyrimidin-4-yl)-2-(3-(pyrrolidin-1-ylsulfonyl)phenyl)acrylamide], for which the IC50 in test [1], in test [2] and in test [3] was > 30 µM in each case.

`NC(=O)/C(=C/c1ccnc(-c2cc(C(F)(F)F)cc(C(F)(F)F)c2)n1)c1ccc(S(=O)(=O)N2CCOCC2)cc1` [Compound 151, (E)-3-(2-(3,5-bis(trifluoromethyl)phenyl)pyrimidin-4-yl)-2-(4-(morpholinosulfonyl)phenyl)acrylamide]: the IC50 in test [1] was > 30 µM; in test [2], 0.1 to 5 µM; in test [3], 5 to 30 µM.

Consider `Cc1ccc(F)cc1/C(=C\c1ccnc(-c2cc(C(F)(F)F)cc(C(F)(F)F)c2)n1)C(N)=O` [Compound 161, (E)-3-(2-(3,5-bis(trifluoromethyl)phenyl)pyrimidin-4-yl)-2-(5-fluoro-2-methylphenyl)acrylamide], for which the IC50 in test [1], in test [2] and in test [3] was > 30 µM throughout.

On to `NC(=O)/C(=C/c1ccnc(-c2cc(C(F)(F)F)cc(C(F)(F)F)c2)n1)c1cncc2ccccc12` [Compound 158, (E)-3-(2-(3,5-bis(trifluoromethyl)phenyl)pyrimidin-4-yl)-2-(isoquinolin-4-yl)acrylamide], for which the results for the IC50 in test [1], in test [2] and in test [3] were > 30 µM, < 0.1 µM and < 0.1 µM, respectively.

As for `N#Cc1ccc(/C(=C\c2ccnc(-c3cc(C(F)(F)F)cc(C(F)(F)F)c3)n2)C(N)=O)s1` [Compound 135, (Z)-3-(2-(3,5-bis(trifluoromethyl)phenyl)pyrimidin-4-yl)-2-(5-cyanothiophen-2-yl)acrylamide], the IC50 in test [1] was 5 to 30 µM; in test [2], < 0.1 µM; in test [3] it was 0.1 to 5 µM.

With `NC(=O)/C(=C/c1ccnc(-c2cc(C(F)(F)F)cc(C(F)(F)F)c2)n1)c1cccc(S(=O)(=O)N2CC(F)C2)c1` [Compound 145, (E)-3-(2-(3,5-bis(trifluoromethyl)phenyl)pyrimidin-4-yl)-2-(3-((3-fluoroazetidin-1-yl)sulfonyl)phenyl)acrylamide], the IC50 in test [1], in test [2] and in test [3] was > 30 µM each time.

For `NC(=O)/C(=C/c1cncc(-c2cc(C(F)(F)F)cc(C(F)(F)F)c2)n1)c1cncnc1` [Compound 114, (E)-3-(6-(3,5-bis(trifluoromethyl)phenyl)pyrazin-2-yl)-2-(pyrimidin-5-yl)acrylamide], the IC50 in test [1], in test [2] and in test [3] was > 30 µM each time.

`CS(=O)(=O)Nc1cccc(/C(=C\c2ccnc(-c3cc(C(F)(F)F)cc(C(F)(F)F)c3)n2)C(N)=O)c1` [Compound 144, (E)-3-(2-(3,5-bis(trifluoromethyl)phenyl)pyrimidin-4-yl)-2-(3-(methylsulfonamido)phenyl)acrylamide]: the IC50 in test [1], in test [2] and in test [3] was > 30 µM in each case.

Regarding `NC(=O)/C(=C/c1ccnc(-c2cc(C(F)(F)F)cc(C(F)(F)F)c2)n1)c1ccc(S(=O)(=O)N2CCCCC2)cc1` [Compound 156, (E)-3-(2-(3,5-bis(trifluoromethyl)phenyl)pyrimidin-4-yl)-2-(4-(piperidin-1-ylsulfonyl)phenyl)acrylamide], the IC50 in test [1], in test [2] and in test [3] was > 30 µM in each case.

As to `NC(=O)/C(=C/c1ccnc(-c2cc(C(F)(F)F)cc(C(F)(F)F)c2)n1)c1ccsc1Cl` [Compound 143, (E)-3-(2-(3,5-bis(trifluoromethyl)phenyl)pyrimidin-4-yl)-2-(2-chlorothiophen-3-yl)acrylamide], the IC50 in test [1], in test [2] and in test [3] was > 30 µM in each case.

As for `NC(=O)/C(=C/c1ccnc(-c2cc(C(F)(F)F)cc(C(F)(F)F)c2)n1)c1ccc(Cl)c(Cl)c1` [Compound 153, (E)-3-(2-(3,5-bis(trifluoromethyl)phenyl)pyrimidin-4-yl)-2-(3,4-dichlorophenyl)acrylamide], the IC50 in test [1] is > 30 µM; in test [2], 0.1 to 5 µM; in test [3] it was > 30 µM.

As to `COC(=O)/C(=C/c1cncc(-c2cc(C(F)(F)F)cc(C(F)(F)F)c2)n1)c1cncnc1` [Compound 116, methyl (E)-3-(6-(3,5-bis(trifluoromethyl)phenyl)pyrazin-2-yl)-2-(pyrimidin-5-yl)acrylate], the figures for the IC50 in test [1], in test [2] and in test [3] were > 30 µM, 5 to 30 µM and 5 to 30 µM, respectively.

Consider `NC(=O)/C(=C/c1ccnc(-c2cc(C(F)(F)F)cc(C(F)(F)F)c2)n1)c1ccc(-c2cccnc2)cc1` [Compound 142, (E)-3-(2-(3,5-bis(trifluoromethyl)phenyl)pyrimidin-4-yl)-2-(4-(pyridin-3-yl)phenyl)acrylamide], for which the IC50 in test [1], in test [2] and in test [3] was > 30 µM throughout.

`NC(=O)/C(=C/c1ccnc(-c2cc(C(F)(F)F)cc(C(F)(F)F)c2)n1)c1cc2ccccc2o1` [Compound 136, (E)-2-(benzofuran-2-yl)-3-(2-(3,5-bis(trifluoromethyl)phenyl)pyrimidin-4-yl)acrylamide]: the IC50 in test [1] lay in the range of 5 to 30 µM; in test [2], 0.1 to 5 µM; in test [3] it was 0.1 to 5 µM.

In the case of `CCOC(=O)/C(Br)=C/c1cncc(-c2cc(C(F)(F)F)cc(C(F)(F)F)c2)n1` [Compound 102, ethyl (Z)-3-(6-(3,5-bis(trifluoromethyl)phenyl)pyrazin-2-yl)-2-bromoacrylate], the IC50 was > 30 µM in test [1], 0.1 to 5 µM in test [2] and 0.1 to 5 µM in test [3].

As for `NC(=O)/C(=C/c1ccnc(-c2cc(C(F)(F)F)cc(C(F)(F)F)c2)n1)c1ccccc1` [Compound 120, (E)-3-(2-(3,5-bis(trifluoromethyl)phenyl)pyrimidin-4-yl)-2-phenylacrylamide], the IC50 in test [1], in test [2] and in test [3] was > 30 µM throughout.

Regarding `NC(=O)/C(=C/c1ccnc(-c2cc(C(F)(F)F)cc(C(F)(F)F)c2)n1)c1ccc(OC(F)(F)F)cc1` [Compound 134, (E)-3-(2-(3,5-bis(trifluoromethyl)phenyl)pyrimidin-4-yl)-2-(4-(trifluoromethoxy)phenyl)acrylamide], the IC50 in test [1], in test [2] and in test [3] was > 30 µM in each case.

For the compound `NC(=O)/C(=C/c1ccnc(-c2cc(C(F)(F)F)cc(C(F)(F)F)c2)n1)c1ccc(S(=O)(=O)C2CC2)cc1` [Compound 122, (E)-3-(2-(3,5-bis(trifluoromethyl)phenyl)pyrimidin-4-yl)-2-(4-(cyclopropylsulfonyl)phenyl)acrylamide], the IC50 in test [1] was > 30 µM; in test [2], 5 to 30 µM; in test [3], 0.1 to 5 µM.

Regarding `NC(=O)/C(=C/c1ccnc(-c2cc(C(F)(F)F)cc(C(F)(F)F)c2)n1)c1ccc2cn[nH]c2c1` [Compound 140, (E)-3-(2-(3,5-bis(trifluoromethyl)phenyl)pyrimidin-4-yl)-2-(1H-indazol-6-yl)acrylamide], the IC50 was > 30 µM in test [1], > 30 µM in test [2] and 0.1 to 5 µM in test [3].

With `CC1(C)CN(S(=O)(=O)c2cccc(/C(=C\c3ccnc(-c4cc(C(F)(F)F)cc(C(F)(F)F)c4)n3)C(N)=O)c2)CCO1` [Compound 164, (E)-3-(2-(3,5-bis(trifluoromethyl)phenyl)pyrimidin-4-yl)-2-(3-((2,2-dimethylmorpholino)sulfonyl)phenyl)acrylamide], the results for the IC50 in test [1], in test [2] and in test [3] were > 30 µM, 0.1 to 5 µM and > 30 µM, respectively.

On to `NC(=O)/C(=C/c1ccnc(-c2cc(C(F)(F)F)cc(C(F)(F)F)c2)n1)c1ccc(N2CCOCC2)cc1` [Compound 165, (E)-3-(2-(3,5-bis(trifluoromethyl)phenyl)pyrimidin-4-yl)-2-(4-morpholinophenyl)acrylamide], for which the IC50 in test [1], in test [2] and in test [3] was > 30 µM each time.

As usually defined, the IC50 is the concentration needed to halve the response being measured. Read a low IC50 as inhibition by little substance.
